# Source: ChEMBL document CHEMBL1127133, “Substituted 6-alkyloxapenems: potent -lactamase inhibitors: synthesis and biological characterization” (Bioorg Med Chem Lett, 1993)
# Experiment: T1/2 (phosphate buffer pH 7.0 @ 28 degree C)
# Type: ADME
row,SMILES,half-life [h]
1,C[C@H](F)[C@H]1C(=O)N2C(C(=O)[O-])=C(C(C)(C)C)O[C@H]12.[Na+],7.2
2,CC(C)(C)C1=C(C(=O)[O-])N2C(=O)[C@H](CO)[C@H]2O1.[Na+],5
3,CC(=O)NC[C@H]1C(=O)N2C(C(=O)[O-])=C(C(C)(C)C)O[C@H]12.[Na+],< 3
4,CC(C)(C)C1=C(C(=O)[O-])N2C(=O)[C@H]([C@@H](O)c3ccncc3)[C@H]2O1.[Na+],6
5,CC(C)(C)C1=C(C(=O)[O-])N2C(=O)[C@H](CNS(=O)(=O)Cc3ccccc3)[C@H]2O1.[Na+],8.9
6,CC(C)(C)C1=C(C(=O)[O-])N2C(=O)[C@H]([C@H](O)c3ccccc3)[C@@H]2O1.[Na+],0.5
7,CC(C)(C)C1=C(C(=O)[O-])N2C(=O)[C@H]([C@@H](O)CCc3ccccc3)[C@H]2O1.[Na+],39
8,C[C@@H](O)[C@H]1C(=O)N2C(C(=O)[O-])=C(C(C)(C)C)O[C@H]12.[Na+],8.1
9,COC(=O)[C@@H](O)[C@H]1C(=O)N2C(C(=O)[O-])=C(C(C)(C)C)O[C@H]12.[Na+],6.2
10,CC(C)(C)C1=C(C(=O)[O-])N2C(=O)[C@H]([C@H](O)c3ccccc3)[C@H]2O1.[Na+],7
11,CC(C)(C)C1=C(C(=O)[O-])N2C(=O)[C@H](CNC(=O)CNC(=O)Cc3ccccc3)[C@H]2O1.[Na+],6.6
12,CC(C)(C)C1=C(C(=O)[O-])N2C(=O)[C@H](CO)[C@@H]2O1.[Na+],2.4
13,CC(C)(C)C1=C(C(=O)[O-])N2C(=O)[C@H]([C@@H](O)c3ccccc3)[C@@H]2O1.[Na+],2.2
14,CC(C)(C)C1=C(C(=O)[O-])N2C(=O)[C@H]([C@@H](O)CCc3ccc(O)cc3)[C@H]2O1.[Na+],21.2
15,Cn1cc([C@H](O)[C@H]2C(=O)N3C(C(=O)[O-])=C(C(C)(C)C)O[C@H]23)nn1.[Na+],7
16,Cn1cc([C@@H](O)[C@H]2C(=O)N3C(C(=O)[O-])=C(C(C)(C)C)O[C@H]23)nn1.[Na+],6.8
17,COC(=O)[C@H](O)[C@H]1C(=O)N2C(C(=O)[O-])=C(C(C)(C)C)O[C@H]12.[Na+],6.7
18,CC(C)(C)C1=C(C(=O)[O-])N2C(=O)[C@H]([C@@H](O)CCc3ccc(O)cc3)[C@@H]2O1.[Na+],11.8
19,C[C@H](O)[C@H]1C(=O)N2C(C(=O)[O-])=C(C(C)(C)C)O[C@H]12.[Na+],7.1

row,SMILES,half-life [h]
1,CC(C)(C)C1=C(C(=O)[O-])N2C(=O)[C@H](CN)[C@H]2O1.[Na+],1.2
2,CC(C)(C)C1=C(C(=O)[O-])N2C(=O)[C@H]([C@@H](O)c3ccccc3)[C@H]2O1.[Na+],8.9
3,CC(C)(C)C1=C(C(=O)[O-])N2C(=O)[C@H]([C@H](O)CCc3ccncc3)[C@H]2O1.[Na+],13.7
4,CC(C)(C)C1=C(C(=O)[O-])N2C(=O)[C@H]([C@H](O)CCc3ccc(O)cc3)[C@H]2O1.[Na+],24.6
5,O=C([O-])[C@H]1/C(=C/CO)O[C@@H]2CC(=O)N21.[K+] [CLAVULANATE POTASSIUM],60
6,CC(C)(C)C1=C(C(=O)[O-])N2C(=O)[C@H]([C@@H](O)c3ccc(O)cc3)[C@H]2O1.[Na+],10.3
7,CC(C)(C)C1=C(C(=O)[O-])N2C(=O)[C@H]([C@H](O)CCc3ccncc3)[C@@H]2O1.[Na+],7.1
8,C[C@@H](F)[C@H]1C(=O)N2C(C(=O)[O-])=C(C(C)(C)C)O[C@H]12.[Na+],3.5
9,C[C@@H](O)[C@H]1C(=O)N2C(C(=O)[O-])=C(C(C)(C)C)O[C@@H]12.[Na+],6.4
10,CC(C)(C)C1=C(C(=O)[O-])N2C(=O)[C@H]([C@H](O)CCc3ccccc3)[C@H]2O1.[Na+],21
11,CC(C)(C)C1=C(C(=O)[O-])N2C(=O)[C@H](CNC(=O)Cc3ccccc3)[C@H]2O1.[Na+],5.5
12,CC(C)(C)C1=C(C(=O)[O-])N2C(=O)[C@H](CNS(C)(=O)=O)[C@H]2O1.[Na+],2.2
13,CC(C)(C)C1=C(C(=O)[O-])N2C(=O)[C@H](CNC(=O)[C@H](N)c3ccccc3)[C@H]2O1.[Na+],2.2
14,CC(C)(C)C1=C(C(=O)[O-])N2C(=O)[C@H](CNC(=O)COc3ccccc3)[C@H]2O1.[Na+],5.7
15,CC(C)(C)C1=C(C(=O)[O-])N2C(=O)[C@H](CNC(=O)CCNC(=O)Cc3ccccc3)[C@H]2O1.[Na+],5.5
16,CC(C)(C)OC(=O)[C@H](O)[C@H]1C(=O)N2C(C(=O)[O-])=C(C(C)(C)C)O[C@H]12.[Na+],10.7
17,CC(C)(C)C1=C(C(=O)[O-])N2C(=O)[C@H]([C@H](O)c3ccncc3)[C@H]2O1.[Na+],6.4
18,CC(C)(C)C1=C(C(=O)[O-])N2C(=O)[C@H]([C@@H](O)CCc3ccncc3)[C@H]2O1.[Na+],15.8
19,CC(C)(C)C1=C(C(=O)[O-])N2C(=O)[C@H](CNC(=O)COC(=O)Cc3ccccc3)[C@H]2O1.[Na+],9.3
